Results: a melting point compilation (Tetko et al.; mined from patent text by program, amines drawn as free bases though some values may be those of a salt)

SMILES | melting point [°C]
CN(C)CCCOc1ccc(-c2ccc3nnn(Cc4ccc5ncccc5c4)c3n2)cc1F | 102 to 105
Cc1noc(C)c1-c1ccc(OC2SCC(O)C(O)C2O)cc1 (centres undefined) | 175 to 179
NCc1ccc(O)cc1 | 104
O=C(O[C@@H]1CCN(CC#CCN2CCCC2)C1=O)c1ccc([N+](=O)[O-])cc1 | 89 to 90
CCc1c(C)c(=O)oc2cc(-c3ccc(C(C)C)cc3)cc(OC)c12 | 83
COC(=O)c1ccc(NC(C)=O)cc1NC(=O)NC(C)C | 153 to 155
OC(CN1CCCCC1)c1cc(-c2ccccc2)on1 (centres undefined) | 104 to 106
CC(C)(C)OC(=O)N(CCO)C1CCN(c2ccc3c(NC(=O)CC4CCCCC4)c(Cl)ccc3n2)C1 (centres undefined) | 115 to 120
Cc1c2c(nn1-c1ccccc1)c(=O)[nH]c1ccccc12 | > 250
O=C(O)CCCNC(=O)CCCCC1CCSS1 (centres undefined) | 56 to 58
COCCOCCOCCOCC(N)C(=O)O (centres undefined) | 184 to 185
CN(C)c1ccccc1CC(=O)N1C[C@@H]2[C@H](F)CCC(c3ccccc3)(c3ccccc3)[C@@H]2C1 | 186
Oc1ccc([C@H]2CC[C@H](NCC#Cc3ccccc3)CC2)cc1 | 131 to 136
COc1cccc(C(O)C2c3ccccc3Cc3ccccc32)c1 (centres undefined) | 106
O=C1OC(=O)c2c(Cl)c(Sc3ccccc3)c(Sc3ccccc3)c(Cl)c21 | 204 to 207
OC(Cn1ccnc1)c1ccccc1 (centres undefined) | 146 to 148
COC(=O)c1cc(S)cc(C(=O)OC)c1[N+](=O)[O-] | 117 to 119
O=C1CC(c2ccccc2)N(C(=O)Cl)N1 (centres undefined) | 146
O=C1N[C@H](Cc2ccc(C(F)(F)F)cc2)[C@@H](c2ccc(F)cc2)O1 (racemic) | 83 to 84
CCCCCCCCCCCCCCCCCCSSSSCCCCCCCCCCCCCCCCCC | 44 to 45
CS(=O)(=O)c1ccc(C(CC2CCCC2)C(=O)Nc2ccc3ccccc3n2)cc1[N+](=O)[O-] (centres undefined) | 102 to 106
CCN1C(=O)CC[C@@H]2c3ccc(Cl)cc3CC[C@H]21 | 108 to 110
COC(=O)c1ccc(SC)cc1N | 57 to 59
NC(=O)C(c1ccccc1)(c1ccccc1)C1CCN(Cc2ccccc2)C1 (centres undefined) | 135 to 138
CCCCOC(=O)C(NC(=O)OCc1ccccc1)c1ccc(O)cc1 (centres undefined) | 143 to 144
Clc1ncc(C2CCCCC2)c2ccccc12 | 53 to 55

SMILES | melting point [°C]
CN(C(=O)NCC(=O)O)[C@H]1O[C@H](c2ccccc2Cl)c2cc(Cl)ccc2N(Cc2ccccc2)C1=O (relative stereo) | 153 to 155
CC(=C1SCCCS1)c1cccnc1 | 34 to 36
Cc1cc(-n2ccc(OCc3ccccc3)cc2=O)sc1C(=O)NCc1cccnc1 | 165 to 167
O=C(O)c1cn(CCF)c2cc(F)c(F)cc2c1=O | 249 to 251
Cn1ccc(=O)c(OCc2ccccc2)c1C(O)c1ccc2c(c1)OCO2 (centres undefined) | 230 to 232
CC(C)c1nc2ccn(Cc3ccccc3)c(=O)c2n1Cc1cccc(-c2ccc(C(=N)N)cc2)c1 | > 300
COC(COc1cc(C)cc(O)c1)OC | 73 to 75
CC(=O)c1ccc(-c2cc(C(C)(C)C)c(O)c(C(C)(C)C)c2)cc1 | 144 to 145
CC(C)C[C@H](NC(=O)[C@@H]1CCC(=O)O1)C(=O)OC(C)(C)C | 79 to 81
COc1cc2c(cc1I)CCC2=O | 140
O=C1Nc2ccccc2CCC1N1C(=O)c2ccccc2C1=O (centres undefined) | 261 to 263
Oc1ccc2nc(-c3ccc(Cl)cc3)oc2c1 | 273 to 274
COC(=O)NC(C)(C)c1ccc(C)cc1 | 42 to 43
CN1CCN(C2=Nc3cc(C(F)(F)F)ccc3Nc3nn(C)nc32)CC1 | 109 to 111
COC(=O)CCNCC1CC2c3cc(C(C)(C)C)cc4[nH]cc(c34)CC2N(C)C1 (centres undefined) | 153 to 157
COc1cccc(CO)c1F | 53 to 57
CC(C)(C)OC(=O)N[C@@H](Cc1ccccc1)[C@H](C#N)OC(=O)c1ccc(-c2ccccn2)cc1 | 140 to 141
Oc1ccc(-c2cccc(Cl)c2)cc1 | 98 to 101
NCc1noc(-c2nn(Cc3ccccc3)c3ccccc23)n1 | 118 to 119
CC(=O)Oc1cc(/C=C/c2ccc(OC(=O)C(C)(C)Oc3ccc(C(=O)c4ccc(Cl)cc4)cc3)cc2)cc(OC(C)=O)c1 | 112 to 113
CCNC1CCc2[nH]c3ccccc3c2C1 (centres undefined) | 128 to 129
COc1cc(-c2ncn(Cc3ccccc3)c2-c2scc(OC)c2OC)cc(OC)c1OC | 114 to 115
OCCc1ccc(-c2ccccc2)s1 | 74
CCN(CC)CC(C)N1c2ccccc2Sc2ccc(C#N)cc21 (centres undefined) | 83
CCOC(=O)C(=Cc1ccccn1)C(=O)C(C)C | 53 to 55
O=C(O)c1cc(F)c(O)nc1Nc1ccc(F)cc1F | 213 to 216

SMILES | melting point [°C]
Cc1ccc2ccc3ccccc3c(=O)c2c1 | 81 to 83
COC(=O)c1ccc(N)cc1O | 118 to 120
CCCCC[C@H]1CC[C@H](C(=O)N[C@@H](C(=O)OCc2ccccc2)[C@@H](C)O)CC1 | 130 to 134
N#CC(C#N)CC(CC(F)(F)C(F)(F)C(F)(F)C(F)F)SC(F)(F)F (centres undefined) | 72 to 74
Nc1ccc2oc(CCC(F)(F)F)cc2c1 | 74
COC(=O)Cc1nc(-c2ccc(OC)c(OC)c2)c2cc(OC)c(OC)cc2n1 | 152 to 153
CCCCCCOc1ccc(NC(=O)c2cn(-c3ccc(F)cc3)nc2C)cc1C#N | 160 to 161
O=C(c1ccccc1)N(CCCCn1ccnc1)C1=Nc2cccc3cccc1c23 | 139 to 140
CN(c1cc(OC(F)(F)F)cc2cc(C3=NCCS3)[nH]c12)S(=O)(=O)c1cccs1 | 179 to 180
CCOCc1nc2c(N)nc3cccnc3c2n1CC1(O)CC1 | 178 to 179
COc1cnc(-c2cccn3nc(C4(C5CCNCC5)C=CC(N)=CC4)nc23)cn1 (centres undefined) | 219 to 221
C#CCOc1nc(Nc2cc(N)cc(C(=O)OC)c2)ncc1Br | 208 to 209
Cc1ccc(-n2c3ccccc3c3ccccc32)cc1 | 104 to 106
CC(C)CCCC(C)CCCC(C)CCOc1ccc(C(=O)O)o1 (centres undefined) | 70 to 73
Cc1cc(C)n(-c2ccc(NN)nn2)n1 | 142 to 143
O=C(O)CCc1ccc(SCc2coc(/C=C/c3ccccc3)n2)cc1 | 120 to 121
COc1cccc(Cc2nnc(NCCSCc3nc[nH]c3C)[nH]c2=O)c1 | 203 to 204
Cc1ccc(Br)cc1Cn1c(C=O)nn(C)c1=O | 108
COc1ccc(-c2cc(=Nc3c(C)cc(C)cc3C)n(C)c(=O)n2C)cc1OC | 68 to 70
Cc1ccc2c(c1)c(O)c(C(=O)NC1CCCCC1)c(=O)n2Cc1ccccc1 | 87
CC(=O)N(O)C(C)c1cc(C(C)(C)C)c(O)c(C(C)(C)C)c1 (centres undefined) | 153 to 154
CCCCCCCCCCCCc1nnn(C(C(N)=O)c2c(C(C)C)cccc2C(C)C)n1 (centres undefined) | 91 to 93
O=COCCCCCC(=O)NC[C@@H]1CN2C(=O)C[C@H]2O1 (racemic) | 61.5 to 63
COc1ccc(O)c(C(=O)NCCc2ccc([N+](=O)[O-])cc2)c1 | 200
CO/N=C(\C(=O)O)c1ccccc1COc1cc(C)ccc1C | 112 to 114
COc1ccc(Cc2cnc(N)nc2N)cc1OCCCNS(=O)(=O)c1ccc(NC(C)=O)cc1 | 96 to 98

SMILES | melting point [°C]
CN1CCCCC1=NC(=O)Nc1ccc(C(F)(F)F)cc1 | 154 to 155
Cc1cc(-c2nc3cccnn3c2-c2ccnc(NC(=O)c3cncc(Cl)c3)c2)ccc1F | 252 to 254
O=C(Nc1ccc(Cl)c(C(F)(F)F)c1)c1ccccc1NCc1ccc(=O)[nH]c1 | 231
Cc1nc(-c2nc(-c3ccc(Cl)cc3)c(CCCCCO)o2)c[nH]1 | 94 to 95
CCOC(=O)Cn1cccc(NS(=O)(=O)Cc2ccccc2)c1=O | 48 to 49
COc1ccccc1C(=O)NC1CCCn2c1nc(-c1ccncc1)cc2=O (racemic) | 155 to 157
O=C(O)c1ccc(-n2ncc3ccccc32)cc1 | 171 to 172
COc1cccc(COc2cncc(Cl)n2)c1 | 111 to 113
O=C(NCCc1ccc(F)cc1)c1ccc(S(=O)(=O)Nc2ccccc2C(=O)O)cc1 | 85 to 86
CC1(C)C2CC[C@]1(CS(=O)(=O)NCCNCC1COc3ccccc3O1)C(=O)C2 (some centres undefined) | 143 to 146
COc1ccc(OCC2CN(C(C)CO)C(=O)O2)cc1 (centres undefined) | 62 to 67
CSC(=NC(=O)OCc1ccccc1)NNC(=O)NC(=O)OCc1ccccc1 | 165 to 166
CC1=Nc2c3c(C)cnc-3ccn2C1 | 211
N#CC(=Cc1cc(O)c(O)c(Cl)c1)C(=O)Nc1cccc(Cl)c1 | > 300
O=C(NC(Cc1ccccc1)C(=O)O)c1ccc(-c2cnc(OCc3ccccc3)nc2)cc1 (centres undefined) | 184
CS(=O)(=O)c1ccc(-c2cnn(Cc3ccccc3)c(=O)c2-c2ccc3c(c2)COC3=O)cc1 | > 250
Cn1cc(-c2cccc(Cl)c2)c(=O)c(-c2cccc(Cl)c2)c1 | 164 to 167
CCCc1c(OCCCCCOc2cc3c(cc2C(C)=O)CC[C@@H](C(=O)O)O3)ccc(C(C)=O)c1O | 94 to 97.5
OC(=S)c1ccccc1-c1ccccc1 | 178 to 180
COc1ccccc1CNC(=O)c1[nH]c2ccc(Cl)cc2c1S(=O)(=O)c1ccccc1 | 235 to 237
CCC(=O)N(CCc1ccccc1)C1CCc2c(cccc2NC(C)=O)C1 (centres undefined) | 143 to 145
C=CCc1cc2c(ccc(=O)n2CC=C(C)C)c(CC=C)c1O | 187 to 189
O=C(Nc1nc(C(Cl)(Cl)Cl)ns1)c1c(Cl)cccc1Cl | 209
CCOC(=O)c1cccc(CSCCNC(=O)c2c(Cl)cccc2Cl)c1 | 43 to 45
CCCc1ccnc2c(=O)[nH]c(-c3cc(S(=O)(=O)NC)ccc3OCC)nc12 | 216 to 219
CC1(C)CCc2ccc(O)cc21 | 84.5 to 86.5
